Values quoted from earlier work, collected in patent US20150105473A1, “AN ANTIBACTERIAL COMPOSITION WITH LOW AMOUNTS OF SURFACTANT AND ANTIBACTERIAL ACTIVES” (The Dial Corporation, priority 2013, published 2015).

solubility in water: poor solubility in water
SMILES: Oc1cc(Cl)ccc1Oc1ccc(Cl)cc1Cl [triclosan]
